Test results as given in EPA's ToxValDB 9.5 (doi:10.2903/j.efsa.2016.4432).

Legend:
[1] = system: Typhlodromus pyri; assay: LR50; higher = less toxic; details: not reported; mortality
[2] = system: Folsomia candida; details: chronic/long-term; mortality
[3] = system: Colinus virginianus
[4] = system: Daphnia magna; details: chronic/long-term; duration: 21 days; mortality
[5] = system: Oryctolagus sp.; details: developmental; development
[6] = system: Mus musculus; details: acute; mortality
[7] = system: Tagia sp.; details: chronic/long-term; growth
[8] = system: Rattus norvegicus; details: acute; oral; mortality
[9] = system: Anas platyrhynchos; details: short-term; oral; feed; mortality
[10] = system: Apis mellifera; details: acute, mortality
[11] = system: Cyprinodon variegatus

SMILES: COCc1cnc(C2=NC(C)(C(C)C)C(=O)N2)c(C(=O)O)c1 (centres undefined) [Imazamox]
- LR50 [1]: 1340 mL/ha
- NOEC [2]: 3.36 mg/kg
- LD50 ([3]; acute, oral, mortality): 3490 mg/kg-day
- NOAEL ([3]; reproduction developmental): 209 mg/kg-day
- NOEC [4]: 137 mg/L
- NOAEL [5]: 300 mg/kg-day
- LD50 [6]: > 5000 mg/kg-day
- NOEC [7]: 5.85 mg/kg
- LD50 [8]: > 5000 mg/kg-day
- LD50 [9]: > 1930 mg/kg-day
- LD50 ([10]; dermal): > 58 µg/piece
- LD50 ([10]; oral, unspecified): > 40 µg/piece
- LC50 ([11]; acute, duration: 96 hours, mortality): > 97 µg/mL
- NOEC ([11]; chronic/long-term, duration: 35 days, other): 1.22 mg/L
